Assay results from patent US20250034159A1, “INHIBITORS OF EPIDERMAL GROWTH FACTOR RECEPTOR” (ORIC Pharmaceuticals, Inc., priority 2021, published 2025).
Read-outs that look alike come from different tables or passages of the source.

How the values were obtained:
[1] = target: recombinant human EGFR exon 19 deletion/C797S double mutant protein (Homo sapiens (Human), UniProt P00533, C797S/DEL746-750); experiment: Biological Activity Assay C: biochemical assay against EGFR exon 19 deletion/C797S protein (EGFR d19/CS)
recombinant human EGFR exon 19 deletion/C797S double mutant protein, sequence (P00533 other isoform, or with tags, fused parts or gaps C797S/del 1-668/del 746-750 limits assumed): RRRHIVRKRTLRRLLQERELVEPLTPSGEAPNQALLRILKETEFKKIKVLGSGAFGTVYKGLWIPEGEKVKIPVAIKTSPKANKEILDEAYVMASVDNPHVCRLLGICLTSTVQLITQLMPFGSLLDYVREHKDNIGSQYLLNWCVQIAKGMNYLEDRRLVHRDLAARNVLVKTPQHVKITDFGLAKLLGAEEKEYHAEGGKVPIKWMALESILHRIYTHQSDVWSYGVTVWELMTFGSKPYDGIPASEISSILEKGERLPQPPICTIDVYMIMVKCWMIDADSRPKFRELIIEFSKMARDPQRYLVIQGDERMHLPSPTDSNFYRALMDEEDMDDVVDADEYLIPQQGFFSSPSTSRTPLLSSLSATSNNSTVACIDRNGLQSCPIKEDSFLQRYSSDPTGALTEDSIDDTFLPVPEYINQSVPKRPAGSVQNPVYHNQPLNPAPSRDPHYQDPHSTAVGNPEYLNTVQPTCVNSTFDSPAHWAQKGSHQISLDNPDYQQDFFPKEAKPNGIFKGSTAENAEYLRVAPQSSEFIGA
Procedure, shortened: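 IC50 values were fitted with a 4-parameter model to reaction slopes taken from 90 kinetic reads spaced 120 s apart. The Phosphosens sensor/ATP working solution was 40 uM/4 mM, and compound was dosed as 16-point dilutions at 2.5% final DMSO.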

[2] = system: BaF3_EGFR d19/CS cells; experiment: Biological Activity Assay D: BaF3 cell proliferation assay, EGFR exon 19 deletion/C797S (BaF3 d19/CS); format: cell-based; conditions: Ba/F3 EGFR, read-out: BaF3 d19/CS IC50
[3] = system: Ba/F3_EGFR WT cells; experiment: Biological Activity Assay D: BaF3 cell proliferation assay, EGFR wild-type (BaF3 WT); format: cell-based; conditions: Ba/F3 EGFR, read-out: BaF3 WT IC50
[4] = system: BaF3_EGFR LR/CS cells; experiment: Biological Activity Assay D: BaF3 cell proliferation assay, EGFR L858R/C797S mutant (BaF3 LR/CS); format: cell-based; conditions: Ba/F3 EGFR, read-out: BaF3 LR/CS IC50
[5] = BaF3_EGFR d19/CS cells, ~72 hours, CellTiter-Glo
[6] = Ba/F3_EGFR WT cells, ~72 hours, CellTiter-Glo
[7] = BaF3_EGFR LR/CS cells, ~72 hours, CellTiter-Glo

SMILES | IC50 [1] [nM] | IC50 [2, 5] [nM] | IC50 [3, 6] [nM] | IC50 [4, 7] [nM] | IC50 ([2]; 72 h) [nM] | IC50 ([3]; 72 h) [nM] | IC50 ([4]; 72 h) [nM]
O=S1(=O)CC(n2cc(-c3ncnc4oc(C#CC5CCC5)cc34)c(-c3ccc(F)cc3)n2)C1 [Example 206, 3-{4-[6-(cyclobutylethynyl)furo[2,3-d]pyrimidin-4-yl]-3-(4-fluorophenyl)-1H-pyrazol-1-yl}-1λ6-thietane-1,1-dione] | 6.02 | 1110 | > 20000 | 2500 | – | – | –
Fc1ccc(-c2nn(C3CCCCC3(F)F)cc2-c2ncnc3oc(-c4ccccc4)cc23)cc1 (centres unmarked) [Example 207, 4-[1-(2,2-difluorocyclohexyl)-3-(4-fluorophenyl)-1H-pyrazol-4-yl]-6-phenylfuro[2,3-d]pyrimidine] | 3.26 | 633 | 4390 | 140 | – | – | –
CC(=O)N1CCC=C(c2cc3c(-c4cn(CC(C)(C)O)nc4-c4ccc(F)cc4)ncnc3o2)C1 [Example 208, 1-[5-{4-[3-(4-fluorophenyl)-1-(2-hydroxy-2-methylpropyl)-1H-pyrazol-4-yl]furo[2,3-d]pyrimidin-6-yl}-3,6-dihydropyridin-1 (2H)-yl]ethan-1-one] | 0.4 | 95.7 | 1680 | 155 | – | – | –
C[C@@H]1C[C@H](n2cc(-c3ncnc4oc(-c5ccccc5)cc34)c(-c3ccc(F)cc3)n2)CN1S(C)(=O)=O [Example 212, 4-{3-(4-fluorophenyl)-1-[(3S,5R)-1-(methanesulfonyl)-5-methylpyrrolidin-3-yl]-1H-pyrazol-4-yl}-6-phenylfuro[2,3-d]pyrimidine] | 0.37 | 5.28 | 87.8 | 6.71 | – | – | –
CS(=O)(=O)CCCn1cc(-c2ncnc3[nH]c(-c4ccccc4)nc23)c(-c2ccc(F)cc2)n1 [Example 215, 6-{3-(4-fluorophenyl)-1-[3-(methanesulfonyl)propyl]-1H-pyrazol-4-yl}-8-phenyl-9H-purine] | 0.26 | 83.5 | 2340 | 30.8 | – | – | –
Cn1cncc1-c1cc2c(-c3cn(C4CS(=O)(=O)C4)nc3-c3ccc(F)cc3)ncnc2o1 [Example 217, 3-{3-(4-fluorophenyl)-4-[6-(1-methyl-1H-imidazol-5-yl)furo[2,3-d]pyrimidin-4-yl]-1H-pyrazol-1-yl}-16-thietane-1,1-dione] | 0.276 | – | – | – | 98.9 | 1240 | 147
Fc1ccc(-c2nn([C@H]3C[C@H](F)C3)cc2-c2ncnc3oc(-c4ccccc4)cc23)cc1 [Example 219, 4-{1-[(1r,3r)-3-fluorocyclobutyl]-3-(4-fluorophenyl)-1H-pyrazol-4-yl}-6-phenylfuro[2,3-d]pyrimidine] | 1.53 | 200 | 4370 | 221 | – | – | –
CC1(C)CC(Cn2cc(-c3ncnc4oc(-c5ccccc5)cc34)c(-c3ccc(F)cc3)n2)O1 (centres unmarked) [Example 220, 4-{1-[(4,4-dimethyloxetan-2-yl)methyl]-3-(4-fluorophenyl)-1H-pyrazol-4-yl}-6-phenylfuro[2,3-d]pyrimidine] | 0.55 | 111 | 1040 | 37.2 | – | – | –
Cc1ncc(-c2cc3c(-c4cn(C5CS(=O)(=O)C5)nc4-c4ccc(F)cc4)ncnc3o2)s1 [Example 224, 3-{3-(4-fluorophenyl)-4-[6-(2-methyl-1,3-thiazol-5-yl)furo[2,3-d]pyrimidin-4-yl]-1H-pyrazol-1-yl}-16-thietane-1,1-dione] | 0.14 | – | – | – | 37.7 | 1450 | 26.6
Fc1ccc(-c2nn(CCOC(F)F)cc2-c2ncnc3oc(-c4ccccc4)cc23)cc1 [Example 231, 4-{1-[2-(difluoromethoxy)ethyl]-3-(4-fluorophenyl)-1H-pyrazol-4-yl}-6-phenylfuro[2,3-d]pyrimidine] | 0.46 | 35.4 | 660 | 17.9 | – | – | –

The next lines start with results.

IC50 [1] [nM] | IC50 [2, 5] [nM] | IC50 [3, 6] [nM] | IC50 [4, 7] [nM] | SMILES | IC50 ([2]; 72 h) [nM] | IC50 ([3]; 72 h) [nM] | IC50 ([4]; 72 h) [nM]
0.11 | 49.7 | 1280 | 51 | CN1CCN(Cc2cccc(-c3cc4c(-c5cn(C6CS(=O)(=O)C6)nc5-c5ccc(F)cc5)ncnc4o3)c2)CC1 [Example 205, 3-[3-(4-fluorophenyl)-4-(6-{3-[(4-methylpiperazin-1-yl)methyl]phenyl}furo[2,3-d]pyrimidin-4-yl)-1H-pyrazol-1-yl]-1λ6-thietane-1,1-dione] | – | – | –
0.44 | 160 | 1940 | 296 | CC(=O)N1CCC=C(c2cc3c(-c4cn(C5CS(=O)(=O)C5)nc4-c4ccc(F)cc4)ncnc3o2)C1 [Example 209, 3-{4-[6-(1-acetyl-1,2,5,6-tetrahydropyridin-3-yl)furo[2,3-d]pyrimidin-4-yl]-3-(4-fluorophenyl)-1H-pyrazol-1-yl}-1λ6-thietane-1,1-dione] | – | – | –
0.06 | 58.5 | 2130 | 31.1 | O=S1(=O)CC(n2cc(-c3ncnc4oc(-c5c[nH]cn5)cc34)c(-c3ccc(F)cc3)n2)C1 [Example 216, 3-{3-(4-fluorophenyl)-4-[6-(1H-imidazol-4-yl)furo[2,3-d]pyrimidin-4-yl]-1H-pyrazol-1-yl}-16-thietane-1,1-dione] | – | – | –
0.36 | 103 | 1440 | 158 | O=S1(=O)CC(n2cc(-c3ncnc4oc(-c5ccns5)cc34)c(-c3ccc(F)cc3)n2)C1 [Example 218, 3-{3-(4-fluorophenyl)-4-[6-(1,2-thiazol-5-yl)furo[2,3-d]pyrimidin-4-yl]-1H-pyrazol-1-yl}-1λ6-thietane-1,1-dione] | – | – | –
21.6 | 893 | > 20000 | 2200 | Cc1noc(-c2cc3c(-c4cn(C5CS(=O)(=O)C5)nc4-c4ccc(F)cc4)ncnc3o2)n1 [Example 223, 3-{3-(4-fluorophenyl)-4-[6-(3-methyl-1,2,4-oxadiazol-5-yl)furo[2,3-d]pyrimidin-4-yl]-1H-pyrazol-1-yl}-1λ6-thietane-1,1-dione] | – | – | –
2.13 | 384 | 4560 | 667 | CN(C)C(=O)c1ccccc1-c1cc2c(-c3cn(C4CS(=O)(=O)C4)nc3-c3ccc(F)cc3)ncnc2o1 [Example 228, 2-{4-[1-(1,1-dioxo-1λ6-thietan-3-yl)-3-(4-fluorophenyl)-1H-pyrazol-4-yl]furo[2,3-d]pyrimidin-6-yl}-N,N-dimethylbenzamide] | – | – | –
0.67 | 169 | 3760 | 292 | CNC(=O)c1ccccc1-c1cc2c(-c3cn(C4CS(=O)(=O)C4)nc3-c3ccc(F)cc3)ncnc2o1 [Example 229, 2-{4-[1-(1,1-dioxo-1λ6-thietan-3-yl)-3-(4-fluorophenyl)-1H-pyrazol-4-yl]furo[2,3-d]pyrimidin-6-yl}-N-methylbenzamide] | – | – | –
0.23 | 9.99 | 301 | 9.42 | N#CCCc1cccc(-c2cc3c(-c4cn(C5CS(=O)(=O)C5)nc4-c4ccc(F)cc4)ncnc3o2)c1 [Example 232, 3-(3-{4-[1-(1,1-dioxo-1λ6-thietan-3-yl)-3-(4-fluorophenyl)-1H-pyrazol-4-yl]furo[2,3-d]pyrimidin-6-yl}phenyl)propanenitrile] | – | – | –
3.6 | 309 | 2120 | 438 | Cc1cnc(-c2cc3c(-c4cn(C5CS(=O)(=O)C5)nc4-c4ccc(F)cc4)ncnc3o2)o1 [Example 234, 3-{3-(4-fluorophenyl)-4-[6-(5-methyl-1,3-oxazol-2-yl)furo[2,3-d]pyrimidin-4-yl]-1H-pyrazol-1-yl}-1λ6-thietane-1,1-dione] | – | – | –
0.24 | 41.3 | 837 | 41.8 | O=S1(=O)CC(n2cc(-c3ncnc4oc(-c5ccsn5)cc34)c(-c3ccc(F)cc3)n2)C1 [Example 235, 3-{3-(4-fluorophenyl)-4-[6-(1,2-thiazol-3-yl)furo[2,3-d]pyrimidin-4-yl]-1H-pyrazol-1-yl}-1λ6-thietane-1,1-dione] | – | – | –
0.16 | 17.1 | 924 | 11.2 | Cc1nc(-c2cc3c(-c4cn(C5CS(=O)(=O)C5)nc4-c4ccc(F)cc4)ncnc3o2)cs1 [Example 236, 3-{3-(4-fluorophenyl)-4-[6-(2-methyl-1,3-thiazol-4-yl)furo[2,3-d]pyrimidin-4-yl]-1H-pyrazol-1-yl}-16-thietane-1,1-dione] | – | – | –
1.73 | 1280 | 12400 | 1500 | CNC(=O)c1cncc(-c2cc3c(-c4cn(C5CS(=O)(=O)C5)nc4-c4ccc(F)cc4)ncnc3o2)c1 [Example 239, 5-{4-[1-(1,1-dioxo-1λ6-thietan-3-yl)-3-(4-fluorophenyl)-1H-pyrazol-4-yl]furo[2,3-d]pyrimidin-6-yl}-N-methylpyridine-3-carboxamide] | – | – | –
0.34 | 66.4 | 7560 | 57.9 | Cc1ccc(-c2cc3c(-c4cn(C5CS(=O)(=O)C5)nc4-c4ccc(F)cc4)ncnc3o2)c(C)n1 [Example 240, 3-{4-[6-(2,6-dimethylpyridin-3-yl)furo[2,3-d]pyrimidin-4-yl]-3-(4-fluorophenyl)-1H-pyrazol-1-yl}-16-thietane-1,1-dione] | – | – | –
